# From patent US10253002B2, “Compounds and methods of treating infections” (Neoculi Pty Ltd., priority 2013, dated 2019)
# Where two headings read alike, the source gives them in different places.
# Legend:
# Assay in all cases: Broth microdilution MIC, Example 7 (NCL812 and analogues)
# Escherichia coli = type: cell-based; details: E. coli, 24 hours
# MRSA = type: cell-based, Staphylococcus aureus; details: for activity against MRSA among analogues: MIC testing, two MRSA strains; for MIC: Staphylococcus aureus, MRSA, 24 h
# Summary of the method: (§1)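 CLSI broth microdilution against two MRSA and two VRE strains, tested in duplicate with a third run if results differed by more than one two-fold dilution.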
# VRE = type: cell-based, Enterococcus spp.; details: for activity against VRE among analogues: MIC testing, two VRE strains; for MIC: Enterococcus, VRE, 24 h
# Summary of the method: as §1
# Pseudomonas aeruginosa = type: cell-based
# [1] = MRSA 1, 24 hours, duplicate lines per compound
# [2] = MRSA 2, 24 hours, duplicate lines per compound
# [3] = VRE 1, 24 hours, duplicate lines per compound
# [4] = VRE 2, 24 hours, duplicate lines per compound
Structure (SMILES),"MIC (μg/ml) at 24 hours, E. coli (Escherichia coli; duplicate lines per compound) [µg/mL]","MIC (μg/ml) at 24 hours, MRSA 1 (MRSA; [1]) [µg/mL]","MIC (μg/ml) at 24 hours, MRSA 2 (MRSA; [2]) [µg/mL]","MIC (μg/ml) at 24 hours, VRE 1 (VRE; [3]) [µg/mL]","MIC (μg/ml) at 24 hours, VRE 2 (VRE; [4]) [µg/mL]","MIC (μg/ml) at 24 hours, P. aeruginosa (Pseudomonas aeruginosa; duplicate lines per compound) [µg/mL]",activity against VRE among analogues (VRE),also measured
Cl.N=C(NN=Cc1ccoc1)NN=Cc1ccoc1 [NCL095],>128,>128,>128,>128,>128,>128,–,–
Cl.N=C(N/N=C/C=C/c1ccccc1)N/N=C/C=C/c1ccccc1 [NCL096],>128,>128,>128,>128,>128,>128,–,–
Cl.N=C(NN=Cc1cccc(C(=O)O)c1)NN=Cc1cccc(C(=O)O)c1 [NCL098],>128,>128,>128,>128,>128,>128,–,–
Cl.N=C(N/N=C/c1ccccc1)N/N=C/c1ccccc1 [NCL100],>128,>128,>128,>128,>128,>128,–,–
Cl.N=C(NN=Cc1cccc(O)c1O)NN=Cc1cccc(O)c1O [NCL101],>128,32,32,64,128,>128,greatest activity,activity against MRSA among analogues (MRSA): greatest activity
Cl.N=C(NN=Cc1ccccc1[N+](=O)[O-])NN=Cc1ccccc1[N+](=O)[O-] [NCL102],>128,>128,>128,>128,>128,>128,–,–
Cl.N=C(N/N=C/c1ccc(O)cc1O)N/N=C/c1ccc(O)cc1O [NCL103],>128,>128,>128,>128,>128,>128,–,–
Cl.N=C(NN=Cc1cc(O)c(O)cc1O)NN=Cc1cc(O)c(O)cc1O [NCL104],>128,64,64,128,>128,>128,–,activity against MRSA among analogues (MRSA): greatest activity
Cl.N=C(NN=Cc1ccc(O)c(O)c1O)NN=Cc1ccc(O)c(O)c1O [NCL105],>128,64,>128,64,>128,>128,greatest activity,–
COc1cc(C=NNC(=N)NN=Cc2cc(O)c(O)c(OC)c2)cc(O)c1O.Cl [NCL106],>128,>128,>128,>128,>128,>128,–,–
Cl.N=C(NN=Cc1cccc(O)c1)NN=Cc1cccc(O)c1 [NCL108],>128,64,64,64,128,>128,greatest activity,activity against MRSA among analogues (MRSA): greatest activity
Cl.N=C(N/N=C/c1cccc([N+](=O)[O-])c1)N/N=C/c1cccc([N+](=O)[O-])c1 [NCL109],>128,>128,>128,>128,>128,>128,–,–
Cl.N=C(NN=Cc1ccc([N+](=O)[O-])cc1)NN=Cc1ccc([N+](=O)[O-])cc1 [NCL110],>128,>128,>128,>128,>128,>128,–,–
Cl.N=C(NN=Cc1ccc(O)c(O)c1)NN=Cc1ccc(O)c(O)c1 [NCL111],>128,64,64,64,>128,>128,greatest activity,activity against MRSA among analogues (MRSA): greatest activity
Cl.N=C(NN=Cc1ccc(-c2ccccc2)cc1)NN=Cc1ccc(-c2ccccc2)cc1 [NCL112],>128,>128,128,64,32,>128,greatest activity,–
Cl.N=C(NN=Cc1cc(Cl)cc(Cl)c1)NN=Cc1cc(Cl)cc(Cl)c1 [NCL114],>128,>128,>128,>128,>128,>128,–,–
CN(C)c1ccc(C=NNC(=N)NN=Cc2ccc(N(C)C)cc2O)c(O)c1 [NCL171],–,–,–,–,–,–,greatest activity,"MIC (μg/ml) at 24 hours, E. coli (Escherichia coli): >128 µg/mL; activity against MRSA among analogues (MRSA): greatest activity; MIC (μg/ml) at 24 hours, MRSA 1 (MRSA; MRSA 1, 24 hours): 128 µg/mL; MIC (μg/ml) at 24 hours, MRSA 2 (MRSA; MRSA 2, 24 hours): 64 µg/mL; MIC (μg/ml) at 24 hours, VRE 1 (VRE; VRE 1, 24 hours): 32 µg/mL; MIC (μg/ml) at 24 hours, VRE 2 (VRE; VRE 2, 24 hours): >128 µg/mL; MIC (μg/ml) at 24 hours, P. aeruginosa (Pseudomonas aeruginosa): >128 µg/mL"
Nc1nc(NNC(=O)c2ccccc2)cc(NNC(=O)c2ccccc2)n1 [NCL194],–,–,–,–,–,–,–,"MIC (μg/ml) at 24 hours, E. coli (Escherichia coli): >128 µg/mL; MIC (μg/ml) at 24 hours, MRSA 1 (MRSA; MRSA 1, 24 hours): >128 µg/mL; MIC (μg/ml) at 24 hours, MRSA 2 (MRSA; MRSA 2, 24 hours): >128 µg/mL; MIC (μg/ml) at 24 hours, VRE 1 (VRE; VRE 1, 24 hours): >128 µg/mL; MIC (μg/ml) at 24 hours, VRE 2 (VRE; VRE 2, 24 hours): >128 µg/mL; MIC (μg/ml) at 24 hours, P. aeruginosa (Pseudomonas aeruginosa): >128 µg/mL"
"Nc1nc(N/N=C/c2ccc(O)cc2)cc(N/N=C/c2ccc(O)cc2)n1 [NCL196, 4,4′-((1E,1′E)-((2-aminopyrimidine-4,6-diyl)bis(hydrazin-2-yl-1ylidene))bis(methanylylidene))diphenol]",–,–,–,–,–,–,–,"MIC (Escherichia coli; Escherichia coli, read-out: MIC (μg/ml) at 24 hours E. coli): 64 µg/mL; MIC (μg/ml) at 24 hours, MRSA 2 (MRSA; MRSA 2, 24 hours): 32 µg/mL; MIC (MRSA; read-out: MIC (μg/ml) at 24 hours MRSA 1, MRSA 1, 24 hours): 32 µg/mL; MIC (MRSA; read-out: MIC (μg/ml) at 24 hours MRSA 2, MRSA 2, 24 hours): 64 µg/mL; MIC (VRE; read-out: MIC (μg/ml) at 24 hours VRE 1, VRE 1, 24 hours): 32 µg/mL; MIC (VRE; read-out: MIC (μg/ml) at 24 hours VRE 2, VRE 2, 24 hours): 64 µg/mL; MIC (μg/ml) at 24 hours, VRE 1 (VRE; VRE 1, 24 hours): 64 µg/mL; MIC (μg/ml) at 24 hours, P. aeruginosa (Pseudomonas aeruginosa): 128 µg/mL; MIC (Pseudomonas aeruginosa; Pseudomonas aeruginosa, 24 h, read-out: MIC (μg/ml) at 24 hours P. aeruginosa, P. aeruginosa, 24 hours): 64 µg/mL"
